Experimental data as given in patent US20260021079A1, “NOX INHIBITORS FOR USE IN THE TREATMENT OF ALPORT SYNDROME” (CALLIDITAS THERAPEUTICS SUISSE SA, priority 2022, published 2026).

Tests used:
Type in all cases: in vivo
[1] = tested on: homozygous Col4a3 ko/ko mice; assay: Albumin levels in urine (Albumin Mouse ELISA) in Col4a3 Alport mouse model; settings: setanaxib 60 mg/kg daily oral gavage, Ramipril 10 mg/kg via drinking water; for Albumin levels in urine vs vehicle: age 6 weeks (2 weeks of treatment)
Description: Mice homozygous for the Col4a3 ko/ko targeted mutation are a model for autosomal-recessive Alport syndrome (Cosgrove et al. Kidney Int. 2007, 71(7), p. 615-618). Animals bred on a 129/SvJ background develop glomerulonephritis and die at about 8.5 weeks of age (Jackson Laboratory strain: #002908). Gross et al. Kidney Int. 2003, 63(2), p. 438-446) reported a mean survival of 10 weeks. Since homozygous Col4a3 ko/ko mice reflect key features of Alport syndrome, this mouse model is useful to test potential drug candidates. A number of 40 homozygous Col4a3 ko/ko mice, allocated to 4 groups (vehicle, setanaxib, Ramipril, and setanaxib+Ramipril combination) with n=10 animals each, were used for the study. Starting at an age of 4 weeks, animals were treated with vehicle and/or compound daily per oral gavage for 4 weeks. The reference compound Ramipril was administered via drinking water, prepared on a weekly basis, but changed at the latest after 4 days. Additionally, one wild-type control group (Col4A3+/+) without any treatment was enclosed in the study with n=6 animals. […] Albumin and Creatinine levels were evaluated by ELISA in urine samples of 8 animals per treatment group. Treatment 40 homozygous Col4a3 ko/ko mice, allocated to 4 groups with n=10 animals each, were used for this study. Animals were treated with vehicle or compound daily per oral gavage for 4 weeks starting at an age of 4 weeks. The reference compound Ramipril was administered via drinking water, prepared on a weekly basis, but changed latest after 4 days. Additionally, one wild-type control group without any treatment was enclosed in the study with n=6 animals. The treatment groups are outlined in the table below: […] In case no urine was produced during the fixation process, massage of the abdomen was allowed. Urine was collected in Eppendorf Tubes, spun at 800×g at room temperature for 10 minutes and supernatant was transferred into a fresh tube and frozen at -20° C. until use. Creatinine and Albumin levels in urine supernatants, collected from 8 animals each group […] timepoints, at baseline, 6 and 8 weeks of age (n=96), were analyzed. Albumin levels in urine supernatants, collected from each animal per group at 3 time points (total n=96) were analyzed using an Albumin Mouse ELISA Kit (ab108792; Abcam) according to manufacturer protocol. Briefly, urine samples were centrifuged at 800×g for 10 minutes and diluted into Diluent N. 50 μL of albumin standard or sample was added per well and incubated for 2 hours. After a washing step, 50 μL of biotinylated albumin antibody was added to each well and incubated for 1 hour. […] Albumin levels were determined by reading the absorbance at 450 nm immediately after adding the stop solution.

[2] = tested on: homozygous Col4a3 ko/ko mice; assay: Albumin/creatinine ratio in urine in Col4a3 Alport mouse model; settings: Ramipril 10 mg/kg
Description: Mice homozygous for the Col4a3 ko/ko targeted mutation are a model for autosomal-recessive Alport syndrome (Cosgrove et al. Kidney Int. 2007, 71(7), p. 615-618). Animals bred on a 129/SvJ background develop glomerulonephritis and die at about 8.5 weeks of age (Jackson Laboratory strain: #002908). Gross et al. Kidney Int. 2003, 63(2), p. 438-446) reported a mean survival of 10 weeks. Since homozygous Col4a3 ko/ko mice reflect key features of Alport syndrome, this mouse model is useful to test potential drug candidates. A number of 40 homozygous Col4a3 ko/ko mice, allocated to 4 groups (vehicle, setanaxib, Ramipril, and setanaxib+Ramipril combination) with n=10 animals each, were used for the study. Starting at an age of 4 weeks, animals were treated with vehicle and/or compound daily per oral gavage for 4 weeks. The reference compound Ramipril was administered via drinking water, prepared on a weekly basis, but changed at the latest after 4 days. Additionally, one wild-type control group (Col4A3+/+) without any treatment was enclosed in the study with n=6 animals. […] Albumin and Creatinine levels were evaluated by ELISA in urine samples of 8 animals per treatment group. Treatment 40 homozygous Col4a3 ko/ko mice, allocated to 4 groups with n=10 animals each, were used for this study. Animals were treated with vehicle or compound daily per oral gavage for 4 weeks starting at an age of 4 weeks. The reference compound Ramipril was administered via drinking water, prepared on a weekly basis, but changed latest after 4 days. Additionally, one wild-type control group without any treatment was enclosed in the study with n=6 animals. The treatment groups are outlined in the table below: […] In case no urine was produced during the fixation process, massage of the abdomen was allowed. Urine was collected in Eppendorf Tubes, spun at 800×g at room temperature for 10 minutes and supernatant was transferred into a fresh tube and frozen at -20° C. until use. Creatinine and Albumin levels in urine supernatants, collected from 8 animals each group […] timepoints, at baseline, 6 and 8 weeks of age (n=96), were analyzed. Creatinine levels in urine samples of all animals (n=8 per group, 4 groups, 3 time points, total n=96) were analyzed. For that purpose, an enzymatic assay from Diazyme® (DZ072B) was used. The analysis was performed according to manufacturer protocol with minor modifications introduced for use in 96 well plates and readout in standard plate photometer (Cytation 5, Biotek). Albumin levels in urine supernatants, collected from each animal per group at 3 time points (total n=96) were analyzed using an Albumin Mouse ELISA Kit (ab108792; Abcam) according to manufacturer protocol.

[3] = tested on: homozygous Col4a3 ko/ko mice; assay: Blood Urea Nitrogen (BUN) colorimetric detection in plasma, Col4a3 Alport mouse model; settings: end of study (4 weeks of treatment); first experiment
Description: (§1) Mice homozygous for the Col4a3 ko/ko targeted mutation are a model for autosomal-recessive Alport syndrome (Cosgrove et al. Kidney Int. 2007, 71(7), p. 615-618). Animals bred on a 129/SvJ background develop glomerulonephritis and die at about 8.5 weeks of age (Jackson Laboratory strain: #002908). Gross et al. Kidney Int. 2003, 63(2), p. 438-446) reported a mean survival of 10 weeks. Since homozygous Col4a3 ko/ko mice reflect key features of Alport syndrome, this mouse model is useful to test potential drug candidates. A number of 40 homozygous Col4a3 ko/ko mice, allocated to 4 groups (vehicle, setanaxib, Ramipril, and setanaxib+Ramipril combination) with n=10 animals each, were used for the study. Starting at an age of 4 weeks, animals were treated with vehicle and/or compound daily per oral gavage for 4 weeks. The reference compound Ramipril was administered via drinking water, prepared on a weekly basis, but changed at the latest after 4 days. Additionally, one wild-type control group (Col4A3+/+) without any treatment was enclosed in the study with n=6 animals. At study end the animals were euthanized by i.p. injection of pentobarbital and terminal blood was collected by heart puncture in EDTA coated tubes. […] BUN plasma levels of all animals at the end of the study were analyzed. […]

[4] = tested on: homozygous Col4a3 ko/ko mice; assay: Quantitative detection of mouse Cystatin C in plasma (ELISA), Col4a3 Alport mouse model; settings: end of study (4 weeks of treatment); first experiment
Description: as §1, with “Cystatin C” for “BUN”

[5] = age 8 weeks (4 weeks of treatment), setanaxib 60 mg/kg

SMILES	Albumin levels in urine vs vehicle ([1]; first experiment)	Albumin levels in urine vs vehicle ([1]; second experiment)	Albumin to Creatinine ratio in urine vs vehicle ([2]; age 6 weeks, first experiment, setanaxib 60 mg/kg)	Albumin to Creatinine ratio in urine vs vehicle ([2]; age 6 weeks, second experiment)	Albumin to Creatinine ratio in urine vs vehicle [2, 5]	BUN plasma levels vs vehicle [3]	Cystatin C plasma levels vs vehicle [4]	Albumin levels in urine vs vehicle ([1]; both experiments / experiment not specified)	Albumin levels in urine vs control (vehicle) ([1]; age 8 weeks (4 weeks of treatment))	Albumin to Creatinine ratio in urine vs vehicle ([2]; age 6 weeks, both first and second experiment, setanaxib 60 mg/kg)
CCOC(=O)[C@H](CCc1ccccc1)N[C@@H](C)C(=O)N1[C@H](C(=O)O)C[C@@H]2CCC[C@@H]21 [Ramipril, (2S,3aS,6aS)-1-[(2S)-2-[[(2S)-1-ethoxy-1-oxo-4-phenylbutan-2-yl]amino]propanoyl]-3,3a, 4,5,6,6a-hexahydro-2H-cyclopenta[b]pyrrole-2-carboxylic acid]	slightly reduced the amount of albumin in the urine	reduced to a greater extent	reduced the Albumin to Creatinine ratio, but without reaching significance	the reduction did reach significance	significantly decreased	significant decrease	significant decrease			
CN(C)c1cccc(-c2c3c(=O)n(-c4ccccc4Cl)[nH]c3cc(=O)n2C)c1 [setanaxib, 2-(2-chlorophenyl)-4-[3-(dimethylamino)phenyl]-5-methyl-1H-pyrazolo[4,3-c]pyridine-3,6(2H,5H)-dione]					average decrease	significant decrease	significant decrease	trend towards increased Albumin levels	decrease in average Albumin levels	trend in both the first and second experiment towards an increase
